In ChEMBL document CHEMBL1201862, “PubChem BioAssay data set” (2004):
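Growth conditions: 96-well plates. Treatment: test compound, 48 hours, 5 concentrations. Analysis: linear interpolation between bracketing concentrations; unreached endpoints set to highest concentration. GI50 is the concentration that inhibits growth by half.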 Active and inactive are the calls of the source. No stated cut-off is given here; in the data, active = GI50 up to about 1.1 µM and inactive = higher.

Key:
Assay in all cases: DTP human tumour cell line panel, 48 h
[1] = test system: M14
[2] = test system: HOP-92
[3] = test system: SF-295
[4] = test system: NCI-H522
[5] = test system: A549
[6] = test system: UO-31
[7] = test system: HT-29
[8] = test system: TK-10
[9] = test system: ACHN
[10] = test system: SF-539
[11] = test system: SK-MEL-2
[12] = test system: NCI-H226
[13] = test system: SK-OV-3
[14] = test system: HCT-116
[15] = test system: OVCAR-5
[16] = test system: A498

SMILES | GI50 [1] | GI50 [2] | GI50 [3] | GI50 [4] | GI50 [5] | GI50 [6] | GI50 [7] | GI50 [8] | GI50 [9] | GI50 [10] | GI50 [11] | GI50 [12] | GI50 [13] | GI50 [14] | GI50 [15] | GI50 [16]
CCCCCCCCCCCC(=O)c1c(O)cccc1O | 18.6 µM (inactive) | 18.1 µM (inactive) | 17.2 µM (inactive) | 18.7 µM (inactive) | 18 µM (inactive) | 16.5 µM (inactive) | 22.3 µM (inactive) | 33 µM (inactive) | 19.5 µM (inactive) | 18 µM (inactive) | 15.4 µM (inactive) | 19.3 µM (inactive) | 30.8 µM (inactive) | 18 µM (inactive) | 15.2 µM (inactive) | 
Cc1c(C(=O)Nc2ccc(Cl)c(C(F)(F)F)c2)oc2cc(O)ccc2/c1=N\NC(N)=S | > 100 µM (inactive) |  | > 100 µM (inactive) | > 100 µM (inactive) | > 100 µM (inactive) | > 100 µM (inactive) | > 100 µM (inactive) | > 100 µM (inactive) | > 100 µM (inactive) | > 100 µM (inactive) | > 100 µM (inactive) | > 100 µM (inactive) | > 100 µM (inactive) | > 100 µM (inactive) | > 100 µM (inactive) | > 100 µM (inactive)
Clc1ccc(C2=Nc3ccccc3SC(c3cccs3)C2)cc1 (configuration not stated) | 16.4 µM (inactive) |  | 15 µM (inactive) | 18.1 µM (inactive) | 17.2 µM (inactive) | 13.6 µM (inactive) | 14.3 µM (inactive) | 17.3 µM (inactive) | 15.3 µM (inactive) | 16.8 µM (inactive) |  |  | 16.8 µM (inactive) | 7.67 µM (inactive) | 14.5 µM (inactive) | 14.9 µM (inactive)
COc1nc(OC)c2c(=O)oc(-c3ccccc3)cc2n1 |  | > 100 µM (inactive) | > 100 µM (inactive) | > 100 µM (inactive) | > 100 µM (inactive) | > 100 µM (inactive) | > 100 µM (inactive) | > 100 µM (inactive) | > 100 µM (inactive) | > 100 µM (inactive) | > 100 µM (inactive) | > 100 µM (inactive) | > 100 µM (inactive) | > 100 µM (inactive) | > 100 µM (inactive) | 
COc1ccc2c(c1)CC1NC2Cc2ccccc21 (configuration not stated) | > 100 µM (inactive) |  | > 100 µM (inactive) | > 100 µM (inactive) | > 100 µM (inactive) | > 100 µM (inactive) | > 100 µM (inactive) | > 100 µM (inactive) | > 100 µM (inactive) | > 100 µM (inactive) | > 100 µM (inactive) |  | > 100 µM (inactive) | > 100 µM (inactive) | > 100 µM (inactive) | > 100 µM (inactive)
N=C(N)NNC(=O)CCCCCCCC(=O)NNC(=N)N | > 100 µM (inactive) |  | > 100 µM (inactive) |  | > 100 µM (inactive) | > 100 µM (inactive) | > 100 µM (inactive) | > 100 µM (inactive) | > 100 µM (inactive) | > 100 µM (inactive) | > 100 µM (inactive) |  | > 100 µM (inactive) | > 100 µM (inactive) | > 100 µM (inactive) | > 100 µM (inactive)
CCOC(=O)C1=C(C)NC(=O)NC1c1ccc(OC)cc1OC (configuration not stated) | > 100 µM (inactive) | > 100 µM (inactive) | > 100 µM (inactive) | > 100 µM (inactive) | > 100 µM (inactive) | > 100 µM (inactive) | > 100 µM (inactive) | > 100 µM (inactive) | > 100 µM (inactive) |  | > 100 µM (inactive) | > 100 µM (inactive) | > 100 µM (inactive) | > 100 µM (inactive) | > 100 µM (inactive) | > 100 µM (inactive)
COc1cc(NS(=O)(=O)c2ccc(C)cc2)c2nccnc2c1 | 17 µM (inactive) | 35.2 µM (inactive) | 26.7 µM (inactive) | 20.7 µM (inactive) | 24 µM (inactive) | 34.4 µM (inactive) | 36.8 µM (inactive) | 47 µM (inactive) | 23.1 µM (inactive) | 29.2 µM (inactive) | 16.6 µM (inactive) | 36.9 µM (inactive) | 84.9 µM (inactive) |  | 89.7 µM (inactive) | 56.2 µM (inactive)
CCOC(=O)C1=C(Nc2cccc3ccccc23)OCC1=O | > 100 µM (inactive) | > 100 µM (inactive) |  | > 100 µM (inactive) | > 100 µM (inactive) | > 100 µM (inactive) | > 100 µM (inactive) |  | > 100 µM (inactive) | > 100 µM (inactive) | > 100 µM (inactive) | > 100 µM (inactive) | > 100 µM (inactive) | > 100 µM (inactive) | > 100 µM (inactive) | > 100 µM (inactive)
O=C1C=CC(=O)c2nc3c(cc21)CCC3 | 16.6 µM (inactive) | 19.5 µM (inactive) | > 100 µM (inactive) | 12.6 µM (inactive) | 87.3 µM (inactive) | > 100 µM (inactive) | 45.9 µM (inactive) | 18.5 µM (inactive) | 18.8 µM (inactive) | > 10 µM (inactive) |  |  |  | 15.5 µM (inactive) | > 100 µM (inactive) | 
c1ccc2c(c1)CCc1c(-c3n[nH]c4c3CCc3ccccc3-4)n[nH]c1-2 | > 100 µM (inactive) | > 100 µM (inactive) | > 100 µM (inactive) |  | > 100 µM (inactive) | > 100 µM (inactive) | 76.7 µM (inactive) | > 100 µM (inactive) | > 100 µM (inactive) | > 100 µM (inactive) | > 100 µM (inactive) | > 100 µM (inactive) | > 100 µM (inactive) | > 100 µM (inactive) | > 100 µM (inactive) | > 100 µM (inactive)
CCC1=CC2CN3Cn4c(c(COCc5c6n(c7ccccc57)CN5CC7C=C(CC)C5C6(C(=O)OC)C7)c5ccccc54)C(C(=O)OC)(C2)C13 | > 100 µM (inactive) |  | > 100 µM (inactive) | > 100 µM (inactive) | > 100 µM (inactive) | > 100 µM (inactive) | > 100 µM (inactive) | > 100 µM (inactive) | 68.4 µM (inactive) |  | > 100 µM (inactive) | > 100 µM (inactive) | 92.5 µM (inactive) | > 100 µM (inactive) |  | > 100 µM (inactive)
Brc1cccc(C2SCc3nc4ccccc4n32)c1 (configuration not stated) | 22.5 µM (inactive) | 11.1 µM (inactive) | 27.1 µM (inactive) | 13.9 µM (inactive) | 32.7 µM (inactive) | 9.46 µM (inactive) | 20.6 µM (inactive) | 25.1 µM (inactive) | 16.3 µM (inactive) | 20.8 µM (inactive) |  | 11.2 µM (inactive) | 21.6 µM (inactive) | 14.5 µM (inactive) | 6.01 µM (inactive) | 
N=C(N)N/N=C/c1c[nH]c2ccccc12 | > 100 µM (inactive) |  | > 100 µM (inactive) | 74.6 µM (inactive) | > 100 µM (inactive) | > 100 µM (inactive) | > 100 µM (inactive) | > 100 µM (inactive) | > 100 µM (inactive) | > 100 µM (inactive) | > 100 µM (inactive) | > 100 µM (inactive) | > 100 µM (inactive) |  | > 100 µM (inactive) | 
COc1cc(Cl)c2c3c(c(C(C)=O)oc13)CCC2 | > 100 µM (inactive) | 92.9 µM (inactive) | > 100 µM (inactive) |  | > 100 µM (inactive) |  | > 100 µM (inactive) | > 100 µM (inactive) | > 100 µM (inactive) | > 100 µM (inactive) |  |  | > 100 µM (inactive) | > 100 µM (inactive) |  | > 100 µM (inactive)
CN(C)c1ccc(C(C=C2c3ccccc3Sc3ccccc32)=C(C#N)C#N)cc1 | 58.6 µM (inactive) |  | 87.7 µM (inactive) |  | > 100 µM (inactive) | 82.8 µM (inactive) | > 100 µM (inactive) | > 100 µM (inactive) | 37.5 µM (inactive) | 77.3 µM (inactive) | > 100 µM (inactive) |  | > 100 µM (inactive) | > 100 µM (inactive) | > 100 µM (inactive) | > 100 µM (inactive)
CCCc1c2c([nH]c(=O)c1C)C(=O)c1[nH]c(=O)c(C)c(CCC)c1C2=O | 1.66 µM (inactive) | 41 µM (inactive) | 47.6 µM (inactive) |  | 23.7 µM (inactive) | 56.4 µM (inactive) | 4.75 µM (inactive) | 73.8 µM (inactive) | 7.48 µM (inactive) | > 100 µM (inactive) |  | 77.3 µM (inactive) |  | 3.01 µM (inactive) | 35.6 µM (inactive) | > 100 µM (inactive)
O=C(/C=C/c1ccc[nH]1)c1ccccc1 | > 100 µM (inactive) | 56.2 µM (inactive) | > 100 µM (inactive) | > 100 µM (inactive) | > 100 µM (inactive) | > 100 µM (inactive) | > 100 µM (inactive) | > 100 µM (inactive) | > 100 µM (inactive) | > 100 µM (inactive) | > 100 µM (inactive) | > 100 µM (inactive) | > 100 µM (inactive) | > 100 µM (inactive) | > 100 µM (inactive) | 
COc1cc(/C=C\c2ccc(Br)cc2)cc(OC)c1OC | 0.000312 µM (active) | 0.01 µM (active) | 0.000296 µM (active) | 0.000357 µM (active) | 0.000589 µM (active) | 0.00321 µM (active) | 0.01 µM (active) |  | 0.000794 µM (active) | 0.000463 µM (active) | 0.00794 µM (active) | 0.0014 µM (active) | 58.2 µM (inactive) | 0.000515 µM (active) | 35.4 µM (inactive) | 0.01 µM (active)
Nc1cccc2c1C(=O)c1cccc(N)c1C2=O | > 100 µM (inactive) | > 100 µM (inactive) |  | > 100 µM (inactive) | > 100 µM (inactive) | > 100 µM (inactive) | > 100 µM (inactive) | > 100 µM (inactive) | > 100 µM (inactive) | > 100 µM (inactive) | > 100 µM (inactive) | > 100 µM (inactive) | > 100 µM (inactive) | > 100 µM (inactive) | > 100 µM (inactive) | > 100 µM (inactive)
